Assays:
osMnmM (osYtqB) = target: T1, osMnmM (osYtqB) (Oryza sativa, UniProt Q0DGU2); conditions: 0.1 mM SAM, 20 uM enzyme, bulk tRNA from B. subtilis delta-ytqB (nm5s2U), pH 7.5, 37 C
T1 construct: gene Os05g0511700

atMnmM (atYtqB) = target: T2, atMnmM (atYtqB) (Arabidopsis thaliana, UniProt Q8GUP2); assay: in vitro tRNA methylation, nucleoside HPLC / LC-MS; type: biochemical; conditions: 0.1 mM SAM, 20 uM enzyme, bulk tRNA from B. subtilis delta-ytqB (nm5s2U), pH 7.5, 37 C
T2 construct: gene At1g16445; residues 53-274, chloroplast signal peptide removed, codon-optimized, His-tagged, expressed in E. coli BL21(DE3)
T2 sequence (Q8GUP2 53-274): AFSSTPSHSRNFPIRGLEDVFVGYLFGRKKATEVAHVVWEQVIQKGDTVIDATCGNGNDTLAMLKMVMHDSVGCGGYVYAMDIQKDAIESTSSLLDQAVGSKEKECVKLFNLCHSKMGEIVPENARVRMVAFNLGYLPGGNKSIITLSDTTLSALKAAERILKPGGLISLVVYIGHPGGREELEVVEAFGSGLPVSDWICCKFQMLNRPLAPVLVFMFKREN

T1 sequence (Q0DGU2 48-260): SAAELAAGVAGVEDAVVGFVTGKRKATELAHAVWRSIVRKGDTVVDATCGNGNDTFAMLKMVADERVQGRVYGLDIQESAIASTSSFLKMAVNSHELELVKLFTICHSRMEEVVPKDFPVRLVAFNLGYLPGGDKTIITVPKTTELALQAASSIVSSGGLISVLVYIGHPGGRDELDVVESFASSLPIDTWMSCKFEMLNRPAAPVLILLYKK

C[S+](CC[C@H](N)C(=O)O)C[C@H]1O[C@@H](n2cnc3c(N)ncnc32)[C@H](O)[C@@H]1O (some centres unmarked) [SAM]
in vitro tRNA methylation, nucleoside HPLC / LC-MS (osMnmM (osYtqB)): saMnmM, atMnmM, and osMnmM were capable of methylating the hypomodified tRNA substrates
in vitro tRNA methylation, nucleoside HPLC / LC-MS (atMnmM (atYtqB)): saMnmM, atMnmM, and osMnmM were capable of methylating the hypomodified tRNA substrates

Reference: paper PMC9976899, “Identification of a novel 5-aminomethyl-2-thiouridine methyltransferase in tRNA modification” (Nucleic Acids Research, 2023)
